Measurements as given in BindingDB's records for doi:10.1038/nchembio.137 (University of Texas Southwestern Medical Center, 2009).

Biological target: T1, Protein Wnt-2 (Mus musculus, UniProt P21552)
T1 sequence (P21552 whole entry): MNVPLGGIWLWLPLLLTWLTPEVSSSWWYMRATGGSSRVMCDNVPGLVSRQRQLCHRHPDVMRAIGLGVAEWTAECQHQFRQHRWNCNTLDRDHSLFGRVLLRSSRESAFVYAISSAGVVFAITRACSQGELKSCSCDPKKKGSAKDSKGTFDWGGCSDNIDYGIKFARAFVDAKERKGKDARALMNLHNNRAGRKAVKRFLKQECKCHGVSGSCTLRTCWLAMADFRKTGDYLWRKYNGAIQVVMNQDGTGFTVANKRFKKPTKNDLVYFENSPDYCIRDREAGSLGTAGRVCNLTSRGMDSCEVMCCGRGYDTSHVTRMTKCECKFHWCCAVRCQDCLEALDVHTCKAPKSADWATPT
Assay: Wnt Inhibition Assay
Settings: pH 7.4; 4 °C
Source text: Inhibition assay of Wnt response treated with exogenously supplied of Wnt protein ('exogenous Wnt' test)

| SMILES | IC50 |
| --- | --- |
| O=C(Nc1cccc2cccnc12)c1ccc(-n2c(O)c3c(c2O)[C@H]2C=C[C@@H]3C2)cc1 | 58 nM |
| N#Cc1ccccc1Cn1c(=O)n(C[C@H]2CC[C@H](C(=O)NCc3ccccc3)CC2)c(=O)c2ccccc21 [CID15993586] | 25 nM |
| Cc1cccc2nc(Cn3c(=O)n(C[C@H]4CC[C@H](C(=O)NCc5ccccc5)CC4)c(=O)c4ccccc43)cc(=O)n12 [CID15995771] | 40 nM |
| Cc1ccnc2c(NC(=O)c3ccc(-n4c(O)c5c(c4O)[C@H]4C=C[C@@H]5C4)cc3)cccc12 [CID25093486] | 27 nM |
